From article PMC12024912, “Druggability Studies of Benzene Sulfonamide Substituted Diarylamide (E3) as a Novel Diuretic” (Biomedicines, 2025)

Key:
[1] = molecular target: T1, UT-B (Rattus norvegicus, UniProt P97689); experiment: Stopped-flow measurement of erythrocyte urea permeability; assay type: cell-based
T1 construct: endogenous in cells; host or cells: erythrocytes from male SD rats
T1 sequence (P97689 1-384): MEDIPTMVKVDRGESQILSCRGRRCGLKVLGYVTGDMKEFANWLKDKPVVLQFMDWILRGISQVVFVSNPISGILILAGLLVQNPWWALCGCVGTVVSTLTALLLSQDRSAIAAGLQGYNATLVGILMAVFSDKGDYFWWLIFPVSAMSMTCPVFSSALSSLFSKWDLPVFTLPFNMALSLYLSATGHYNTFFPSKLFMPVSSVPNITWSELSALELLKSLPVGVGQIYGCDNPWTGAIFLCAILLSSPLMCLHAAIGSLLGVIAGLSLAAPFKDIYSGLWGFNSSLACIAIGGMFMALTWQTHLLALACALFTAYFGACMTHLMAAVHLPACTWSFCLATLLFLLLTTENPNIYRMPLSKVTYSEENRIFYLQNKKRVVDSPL
Protocol: Erythrocyte urea permeabilities were assessed via stopped-flow light scattering (SX20, Applied Photophysics, Leatherhead, UK) following established protocols. Erythrocyte was acquired from rat blood and suspended in isotonic PBS (hematocrit 0.5%). Then, the erythrocyte was incubated with test compounds for 5 min and quickly mixed with 500 mmol/L urea dissolved in PBS. Following an initial osmotic shrinking phase, the kinetics of cell volume increase due to urea influx were measured by monitoring the time course of 90° scattered light intensity at 530 nm. […] Keep samples and PBS at 4 °C to reduce the influence of free diffusion. To assay reversibility, compounds were added to erythrocytes for 5 min and then washed with PBS 3 times by 2000 r/min centrifugation before stopped-flow measurements. To determine inhibition on urea efflux, erythrocytes were incubated with 500 mmol/L urea in PBS for 2 h, then mixed with PBS without urea.

[2] = test system: SD rats; experiment: Long-term (7 d) diuretic activity in rats; assay type: in vivo, rat; details: for ALT / AST / Body weight / Brain index / Heart index / Kidney index / Liver index / Serum K / Serum Na / Serum creatinine / Serum urea / Spleen index / Testis index: n=6
Protocol: In a single-dose administration experiment, male wild-type (WT) mice, UT-B^−/− mice, UT-A1^−/− mice, or SD rats were adapted in metabolic cages for 3 d. Food and water were provided ad libitum throughout the experiment. Prior to administration, the bladder of each animal was emptied through gentle abdominal massage, and urine was collected from the metabolic cages every 2 h. Compound E3, suspended in 0.5% CMC-Na at an appropriate concentration, was administered intragastric gavage to the mice or rats (0.16, 0.8, 4, or 20 mg/kg). Vehicle control comprised 0.5% (w/v) CMC-Na. Urinary parameters were determined through the following: volume: Gravimetric analysis (1 g/mL density assumption); osmolality: freezing-point osmometry (Micro-osmometer, Fisker Associates, Norwood, MA, USA); and urea: diacetyl oxime colorimetry (QuantiChrom® kit, Elabscience, Wuhan, China). In long-term (7 d) diuretic activity experiments, male WT mice, UT-B^−/− mice, UT-A1^−/− mice, and SD rats were acclimatized in metabolic cages (Ugo Basile, Comerio, VA, Italy) for 3 d. Food and water were provided ad libitum throughout the experiment. E3 was suspended in 0.5% CMC-Na and administered at a dose of 4 or 20 mg/kg by intragastric gavage. Urine was collected by metabolic cages every 24 h. Body weight was measured daily. At 4 h after the final administration, a blood sample was obtained by heart puncture. Inner medulla and outer medulla tissue homogenates were prepared, and the supernatant after centrifugation was analyzed for solute concentration and osmolality. Urinary osmolality and urea concentration were measured as above. Serum Na^+, K^+, and Cl^− were measured in a clinical chemistry laboratory, while serum creatinine, ALT, and AST were measured through specific reagent kits (NJJC Bio, Nanjing, China).
Multiple tissues and organs were fixed with 4% paraformaldehyde and embedded in paraffin. Five μm paraffin sections were cut and stained with hematoxylin and eosin (H&E).
Inner medulla tissues were homogenized in ice-cold RIPA buffer supplemented with protease/phosphatase inhibitors (Roche, Basel, Switzerland). Following centrifugation (12,000× g, 15 min, 4 °C), supernatants were subjected to BCA quantification (Thermo Scientific, Waltham, MA, USA). Protein lysates underwent SDS-PAGE separation and electrotransfer to PVDF membranes (Amersham Biosciences, Boston, MA, USA). After 2 h blocking with 5% skimmed milk, membranes were sequentially processed with: (1) TBST washes (20 mM Tris-HCl, 137 mM NaCl, 0.1% Tween-20, pH 7.4); (2) primary antibodies (UT-A1/A2/A3, UT-B, AQP2/3, β-actin; 4 °C, 12 h); and (3) HRP-conjugated secondary antibodies (anti-mouse/rabbit IgG; RT, 2 h). Chemiluminescent detection employed the ECL reagent (Meilunbio, Dalian, China) on a Syngene GeneGnome XRQ system, with band quantification via ImageJ (v1.53k).

**Q.** How did the “reversibility of UT-B inhibition” value ([1]; 1 μM followed by washout with PBS) turn out when CC(=O)c1ccc(C(=O)Nc2cccc(NS(=O)(=O)c3ccccc3)c2)o1 [Compound E3, 5-acetyl-N-(3-(phenylsulfonamido)phenyl)furan-2-carboxamide] was run?
**A.** reversible

**Q.** And the “UT-B-mediated urea influx into erythrocytes” value ([1]; stopped-flow light scattering, rat erythrocytes)?
**A.** dose-dependently inhibit

**Q.** And the UT-B-mediated urea efflux ([1]; stopped-flow, erythrocytes preloaded with high urea, mixed with isotonic PBS)?
**A.** inhibited UT-B-mediated urea efflux in a dose-dependent manner

**Q.** What about the urine output ([2]; 4 mg/kg and 20 mg/kg intragastric, 7 d) of the same compound?
**A.** continuously increased

**Q.** And the ALT ([2]; 4 mg/kg, 7 d)?
**A.** 42.2±5.5 U/L

**Q.** And the AST ([2]; 4 mg/kg, 7 d)?
**A.** 113.0±10.6 U/L

**Q.** What about the Body weight ([2]; 4 mg/kg, 7 d) of the same compound?
**A.** 242.4 ± 2.3 g

**Q.** And the Brain index ([2]; 4 mg/kg, 7 d)?
**A.** 0.58±0.01%

**Q.** And the Heart index ([2]; 4 mg/kg, 7 d)?
**A.** 0.38±0.01%

**Q.** And the Kidney index ([2]; 4 mg/kg, 7 d)?
**A.** 0.78±0.03%

**Q.** What about the Liver index ([2]; 4 mg/kg, 7 d) of the same compound?
**A.** 3.98±0.08%

**Q.** What about the “Serum K” value ([2]; 4 mg/kg, 7 d) of the same compound?
**A.** 5.16 ± 0.10 mM

**Q.** What about the “Serum Na” value ([2]; 4 mg/kg, 7 d) of the same compound?
**A.** 140.7 ± 1.2 mM

**Q.** And the Serum creatinine ([2]; 4 mg/kg, 7 d)?
**A.** 33.6 ± 1.7 µM

**Q.** What about the Serum urea ([2]; 4 mg/kg, 7 d) of the same compound?
**A.** 7.15 ± 0.16 mM

**Q.** What about the Spleen index ([2]; 4 mg/kg, 7 d) of the same compound?
**A.** 0.30±0.02%

**Q.** And the Testis index ([2]; 4 mg/kg, 7 d)?
**A.** 0.88±0.06%

**Q.** And the ALT ([2]; 20 mg/kg, 7 d)?
**A.** 40.2±1.9 U/L

**Q.** What about the AST ([2]; 20 mg/kg, 7 d) of the same compound?
**A.** 112.9±4.5 U/L

**Q.** And the Body weight ([2]; 20 mg/kg, 7 d)?
**A.** 240.8 ± 4.1 g

**Q.** What about the Brain index ([2]; 20 mg/kg, 7 d) of the same compound?
**A.** 0.64±0.01%

**Q.** And the Heart index ([2]; 20 mg/kg, 7 d)?
**A.** 0.40±0.01%

**Q.** What about the Kidney index ([2]; 20 mg/kg, 7 d) of the same compound?
**A.** 0.73±0.03%

**Q.** And the Liver index ([2]; 20 mg/kg, 7 d)?
**A.** 3.99±0.06%

**Q.** What about the “Serum K” value ([2]; 20 mg/kg, 7 d) of the same compound?
**A.** 4.98 ± 0.12 mM

**Q.** And the “Serum Na” value ([2]; 20 mg/kg, 7 d)?
**A.** 141.3 ± 1.0 mM

**Q.** And the Serum creatinine ([2]; 20 mg/kg, 7 d)?
**A.** 34.1 ± 1.6 µM

**Q.** What about the Serum urea ([2]; 20 mg/kg, 7 d) of the same compound?
**A.** 7.18 ± 0.19 mM

**Q.** And the Spleen index ([2]; 20 mg/kg, 7 d)?
**A.** 0.29±0.01%

**Q.** And the Testis index ([2]; 20 mg/kg, 7 d)?
**A.** 0.94±0.02%

**Q.** What about the “excretion of non-urea solutes” value ([2]; 4 and 20 mg/kg, 7 d) of the same compound?
**A.** did not change

**Q.** And the urine osmolality ([2]; 4 and 20 mg/kg, 7 d)?
**A.** significantly decreased

**Q.** And the “H&E staining of cortex and medulla of rat kidneys” value ([2]; 7 d, except dilatation of the collecting duct due to polyuria)?
**A.** did not induce morphological abnormalities

**Q.** And the “non-urea solutes in inner medullary tissue” value ([2]; 7 d, vs control)?
**A.** did not change

**Q.** And the “osmolality in inner medullary tissue” value ([2]; 7 d, vs control)?
**A.** significantly decreased

**Q.** And the “outer medullary osmolality, urea concentration, and non-urea solute concentration” value ([2]; 7 d, vs control)?
**A.** no differences

**Q.** What about the “urea concentration in inner medullary tissue” value ([2]; 7 d, vs control) of the same compound?
**A.** significantly decreased

**Q.** What about the “body weight, organ indexes, blood biochemical parameters (incl. serum Na+, K+, Cl−)” value ([2]; after 7 d of treatment, vs control) of the same compound?
**A.** no significant difference
